As a reminder, the IC50 is the concentration that gives 50% inhibition.

In paper PMC6073568, “Efficient Lead Finding, Activity Enhancement and Preliminary Selectivity Control of Nuclear Receptor Ligands Bearing a Phenanthridinone Skeleton” (International Journal of Molecular Sciences, 2018) one finds IC50 data, which are given here for three compounds.

In one assay the target is T1, RORγ (Homo sapiens, UniProt P51449).
T1 construct: expressed in transfected cells; host or cells: HEK293
T1 sequence (P51449 1-518): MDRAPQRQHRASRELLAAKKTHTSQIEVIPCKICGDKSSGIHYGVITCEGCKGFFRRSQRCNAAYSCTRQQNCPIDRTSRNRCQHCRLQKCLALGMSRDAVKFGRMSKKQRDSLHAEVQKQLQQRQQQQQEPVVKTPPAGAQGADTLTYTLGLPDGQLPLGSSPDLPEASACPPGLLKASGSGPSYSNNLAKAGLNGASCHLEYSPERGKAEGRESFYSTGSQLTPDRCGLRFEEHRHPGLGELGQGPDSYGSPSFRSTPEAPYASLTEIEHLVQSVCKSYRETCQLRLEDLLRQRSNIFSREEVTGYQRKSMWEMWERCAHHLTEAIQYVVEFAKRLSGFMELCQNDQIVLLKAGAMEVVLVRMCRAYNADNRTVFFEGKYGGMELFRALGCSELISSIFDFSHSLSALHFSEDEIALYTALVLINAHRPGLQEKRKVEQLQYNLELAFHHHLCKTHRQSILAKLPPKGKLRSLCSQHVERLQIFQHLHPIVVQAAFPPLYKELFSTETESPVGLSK
Particulars: reporter gene assay, HEK293; read-out: RORγ inverse agonistic activity (IC50); cited from earlier work. (A reporter such as luciferase makes a cellular process visible.)

Assay [1] has as its system LNCaP cells (T877A mutation in the AR LBD). Description: PSA level (ELISA) in LNCaP cell line. Particulars: Homo sapiens, LNCaP, dihydrotestosterone 10 nM, 48 h, ± SEM. The assay is classed as cell-based, human. From the text:
Chronic administration of AR antagonists often leads to the development of resistance. […] In contrast, another AR antagonist, enzalutamide, was reported to antagonize AR mutant T877A [23]. Thus, development of a novel chemical class of AR antagonists, different from flutamide analogs seems an attractive approach for the treatment of AR antagonist-resistant cancer, providing further motivation to evaluate steroid surrogates. Therefore, we investigated the antiandrogenic activity of several potent AR antagonists by means of PSA (prostate-specific antigen, an AR-regulated gene) ELISA (enzyme-linked immunosorbent assay) in human prostate cancer cell line LNCaP, which has T877A mutation in the AR LBD.
The human prostate cancer cell line LNCaP (ECACC, London, UK) was routinely maintained in RPMI1640 containing 10% (v/v) fetal bovine serum, and penicillin/streptomycin at 37 °C in a humidified atmosphere of 5% CO2 in air. Cells were cultured in RPMI1640 without phenol red containing 10% (v/v) charcoal-stripped fetal bovine serum, and penicillin/streptomycin at 37 °C in a humidified atmosphere of 5% CO2 in air for 3 days. Then cells were plated in 96-well plates at 1 × 10^4 cells/well and incubated overnight. On the next day, cells were treated with fresh media containing test compound plus dihydrotestosterone (final concentration 10 nM), and incubated for 48 h. Then, PSA levels were measured in the culture supernatants, after 100-fold dilution with the medium, using ELISA (Immunospec Corp., CA, USA Free prostate-specific antigen cat. #E29-212) according to the manufacturer’s instructions. All data points were carried out twice in triplicate.
Background: In an ELISA, binding on a coated surface is turned into a signal by an enzyme label.

Another assay addresses T2, GR (Homo sapiens, UniProt P04150).
T2 construct: expressed in transfected cells; host or cells: HEK293
T2 sequence (P04150 1-777): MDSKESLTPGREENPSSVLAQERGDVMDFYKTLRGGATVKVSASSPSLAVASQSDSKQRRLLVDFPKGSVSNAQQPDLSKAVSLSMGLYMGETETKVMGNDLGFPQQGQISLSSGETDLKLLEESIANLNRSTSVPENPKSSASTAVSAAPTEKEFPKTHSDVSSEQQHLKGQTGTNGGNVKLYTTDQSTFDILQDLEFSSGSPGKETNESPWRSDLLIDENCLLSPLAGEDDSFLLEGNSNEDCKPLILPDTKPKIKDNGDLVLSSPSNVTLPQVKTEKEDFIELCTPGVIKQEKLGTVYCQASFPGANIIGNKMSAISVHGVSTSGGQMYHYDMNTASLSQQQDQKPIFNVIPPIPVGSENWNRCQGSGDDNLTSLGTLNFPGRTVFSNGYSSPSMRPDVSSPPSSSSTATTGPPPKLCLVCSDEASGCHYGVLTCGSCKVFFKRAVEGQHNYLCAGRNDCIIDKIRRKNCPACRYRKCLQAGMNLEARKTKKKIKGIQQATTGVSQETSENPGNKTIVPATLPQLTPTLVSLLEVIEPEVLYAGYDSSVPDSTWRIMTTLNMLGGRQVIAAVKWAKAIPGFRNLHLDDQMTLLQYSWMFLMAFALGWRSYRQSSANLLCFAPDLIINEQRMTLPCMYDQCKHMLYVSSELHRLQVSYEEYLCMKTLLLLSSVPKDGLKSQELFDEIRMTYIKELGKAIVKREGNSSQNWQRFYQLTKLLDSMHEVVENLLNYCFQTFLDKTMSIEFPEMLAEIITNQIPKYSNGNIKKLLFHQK
The assay is described as follows: GR reporter gene assay in HEK293. It counts as cell-based. Particulars: reporter gene assay, HEK293; agonist dexamethasone 1 nM; read-out: GR antagonistic activity (IC50).

Another assay deals with T3, PR (Homo sapiens, UniProt P06401).
T3 sequence (P06401 1-933): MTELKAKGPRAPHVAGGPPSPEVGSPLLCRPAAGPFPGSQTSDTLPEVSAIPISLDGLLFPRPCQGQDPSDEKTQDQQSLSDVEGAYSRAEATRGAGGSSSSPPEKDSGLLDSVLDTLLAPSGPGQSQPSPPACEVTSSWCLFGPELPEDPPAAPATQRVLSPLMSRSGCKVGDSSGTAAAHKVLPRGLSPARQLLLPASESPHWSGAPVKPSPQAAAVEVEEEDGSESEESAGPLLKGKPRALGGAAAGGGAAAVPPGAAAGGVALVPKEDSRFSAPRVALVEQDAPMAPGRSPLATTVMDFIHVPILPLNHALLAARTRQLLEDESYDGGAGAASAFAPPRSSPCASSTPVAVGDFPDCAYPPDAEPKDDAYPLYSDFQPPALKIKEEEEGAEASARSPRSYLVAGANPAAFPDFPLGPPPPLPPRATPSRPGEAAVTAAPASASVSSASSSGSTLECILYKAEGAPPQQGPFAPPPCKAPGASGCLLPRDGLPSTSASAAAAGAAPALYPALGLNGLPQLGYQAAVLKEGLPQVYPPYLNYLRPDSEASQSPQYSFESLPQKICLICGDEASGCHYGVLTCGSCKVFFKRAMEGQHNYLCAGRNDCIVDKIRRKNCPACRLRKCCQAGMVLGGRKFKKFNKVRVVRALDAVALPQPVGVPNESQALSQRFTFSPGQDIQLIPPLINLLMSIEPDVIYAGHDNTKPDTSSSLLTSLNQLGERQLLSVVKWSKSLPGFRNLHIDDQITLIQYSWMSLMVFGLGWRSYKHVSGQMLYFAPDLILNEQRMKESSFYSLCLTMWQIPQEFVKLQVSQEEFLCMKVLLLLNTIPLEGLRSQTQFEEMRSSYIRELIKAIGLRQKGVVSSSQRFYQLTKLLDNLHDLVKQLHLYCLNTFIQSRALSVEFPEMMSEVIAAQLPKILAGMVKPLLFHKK
Particulars: alkaline phosphatase, T47D cells, progesterone 1 nM; read-out: PR antagonistic activity (IC50); cited from earlier work.

Structures are written as SMILES.

As to `O=c1[nH]c2c(F)cc(C(O)(C(F)(F)F)C(F)(F)F)cc2c2ccccc12` [Compound 32], the IC50 at RORγ was 18 µM; in assay [1] it was 490 ± 260 nM; at GR it was 6.9 µM.

For `O=c1[nH]c2ccc(C(O)(C(F)(F)F)C(F)(F)F)cc2c2cccc(F)c12` [Compound 33], the IC50 on RORγ is 13 µM; in assay [1], 190 ± 95 nM; at GR, 9.8 µM.

With `CCCCn1c(=O)c2ccccc2c2cc(C(O)(C(F)(F)F)C(F)(F)F)c3c(c21)OCO3` [Compound 26], the IC50 at PR is 230 nM; on RORγ it was greater than 20 µM; in assay [1], 560 ± 260 nM; at GR, 0.76 µM.
